# Measured values reported in US8299111B2, “Compounds which modulate the CB2 receptor” (Boehringer Ingelheim International GmbH, priority 2006, dated 2012).
# Target: T1, human CB2R (Homo sapiens, UniProt P34972)
# T1 construct: host or cells: CHO cells
# Assay: CB2R mediated modulation of cAMP synthesis
# Format: cell-based
# Details: found through the use of the above described assays (binding and cAMP); CHO cells expressing human CB2R, forskolin-stimulated cAMP
# Summary of the method: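 CHO cells expressing human CB2R were treated for 30 min at 37 °C with compound in buffer containing 1 mM IBMX, 0.25% BSA and 10 uM forskolin. cAMP was measured after lysis. EC50 is the concentration giving 50% inhibition of forskolin-stimulated cAMP, scaled to the level set by 1 uM CP55940, fitted by four-parameter logistic.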
# T1 sequence (P34972 whole entry): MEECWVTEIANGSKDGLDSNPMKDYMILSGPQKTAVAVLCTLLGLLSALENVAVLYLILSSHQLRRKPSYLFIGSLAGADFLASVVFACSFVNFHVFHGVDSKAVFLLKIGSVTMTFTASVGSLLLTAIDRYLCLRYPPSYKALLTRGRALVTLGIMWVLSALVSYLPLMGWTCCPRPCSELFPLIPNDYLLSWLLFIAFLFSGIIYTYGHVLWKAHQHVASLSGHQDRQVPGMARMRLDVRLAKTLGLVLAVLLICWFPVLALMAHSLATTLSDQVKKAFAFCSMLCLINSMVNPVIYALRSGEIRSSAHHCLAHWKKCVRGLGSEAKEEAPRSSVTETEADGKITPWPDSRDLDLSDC
row,Structure (SMILES),agonistic activity
1,"CC(C)(C)c1nnc(NC(=O)C(C)(C)S(=O)(=O)c2ccc(C(F)(F)F)nc2)s1 [N-(5-tert-butyl-1,3,4-thiadiazol-2-yl)-2-methyl-2-{[6-(trifluoromethyl)pyridin-3-yl]sulfonyl}propanamide]",agonistic activity
2,CC(C)(C(=O)Nc1noc2ccccc12)S(=O)(=O)c1ccc(Cl)cc1 [N-Benzo[d]isoxazol-3-yl-2-(4-chloro-benzenesulfonyl)-2-methyl-propionamide],agonistic activity
3,CC(C)(C(=O)Nc1nc2ccccc2o1)S(=O)(=O)c1ccc(Cl)cc1 [N-Benzooxazol-2-yl-2-(4-chloro-benzenesulfonyl)-2-methyl-propionamide],agonistic activity
4,"CC(C)(C)Cc1cc(NC(=O)C(C)(C)S(=O)(=O)c2ccc(C(F)(F)F)nc2)on1 [N-[3-(2,2-dimethylpropyl)isoxazol-5-yl]-2-methyl-2-{[6-(trifluoromethyl)pyridin-3-yl]sulfonyl}propanamide]",agonistic activity
5,"CC(C)(C(=O)Nc1nc(-c2ccc(Cl)cc2)cs1)S(=O)(=O)c1ccc(F)cc1F [N-[4-(4-Chloro-phenyl)-thiazol-2-yl]-2-(2,4-difluoro-benzenesulfonyl)-2-methyl-propionamide]",agonistic activity
6,"CC(C)(C(=O)Nc1ncc(-c2ccc(F)c(F)c2)s1)S(=O)(=O)c1ccc(F)cc1 [N-[5-(3,4-Difluoro-phenyl)-thiazol-2-yl]-2-(4-fluoro-benzenesulfonyl)-2-methyl-propionamide]",agonistic activity

# Further lines, results first:
row,agonistic activity,Structure (SMILES)
1,agonistic activity,CC(C)(C(=O)Nc1nc2ccccc2s1)S(=O)(=O)c1ccc(Cl)cc1 [N-Benzothiazol-2-yl-2-(4-chloro-benzenesulfonyl)-2-methyl-propionamide]
2,agonistic activity,"COc1ccc(S(=O)(=O)C(C)(C)C(=O)Nc2cc(CC(C)(C)C)no2)cc1 [N-[3-(2,2-dimethylpropyl)isoxazol-5-yl]-2-[(4-methoxyphenyl)sulfonyl]-2-methylpropanamide]"
3,agonistic activity,"CC(C)(C)Cc1cc(NC(=O)C(C)(C)S(=O)(=O)c2ccc(S(C)(=O)=O)cc2)on1 [N-[3-(2,2-dimethylpropyl)isoxazol-5-yl]-2-methyl-2-{[4-(methylsulfonyl)phenyl]sulfonyl}propanamide]"
4,agonistic activity,COc1ccc(S(=O)(=O)C(C)(C)C(=O)Nc2nc(-c3ccc(Cl)cc3)cs2)cc1 [N-[4-(4-Chloro-phenyl)-thiazol-2-yl]-2-(4-methoxy-benzenesulfonyl)-2-methyl-propionamide]
5,agonistic activity,Cc1ccc(S(=O)(=O)C(C)(C)C(=O)Nc2nc(-c3ccc(Cl)cc3)cs2)cc1 [N-[4-(4-Chloro-phenyl)-thiazol-2-yl]-2-methyl-2-(toluene-4-sulfonyl)-propionamide]
6,agonistic activity,"CC(C)(C(=O)Nc1nc(-c2ccc(Cl)cc2)cs1)S(=O)(=O)c1ccc(S(C)(=O)=O)cc1 [N-[4-(4-chlorophenyl)-1,3-thiazol-2-yl]-2-methyl-2-{[4-(methylsulfonyl)phenyl]sulfonyl}propanamide]"
7,agonistic activity,"CC(C)(C(=O)Nc1nc(-c2ccc(Cl)cc2)cs1)S(=O)(=O)c1ccc(C(F)(F)F)nc1 [N-[4-(4-chlorophenyl)-1,3-thiazol-2-yl]-2-methyl-2-{[6-(trifluoromethyl)pyridin-3-yl]sulfonyl}propanamide]"
8,agonistic activity,CC(C)(C(=O)Nc1cc2ccccc2cn1)S(=O)(=O)c1ccc(C(F)(F)F)nc1 [N-isoquinolin-3-yl-2-methyl-2-{[6-(trifluoromethyl)pyridin-3-yl]sulfonyl}propanamide]
9,agonistic activity,"CCOC(=O)c1sc(NC(=O)C(C)(C)S(=O)(=O)c2ccc(Cl)cc2)nc1C(F)(F)F [ethyl 2-({2-[(4-chlorophenyl)sulfonyl]-2-methylpropanoyl}amino)-4-(trifluoromethyl)-1,3-thiazole-5-carboxylate]"
